For assay [1], the target named is T1, r-NAAA (Rattus norvegicus, UniProt Q5KTC7).
T1 construct: Lysosomal NAAA protein preparation was obtained by homogenizing male Sprague-Dawley rat lungs; tissue Charles River; host or cells: male Sprague-Dawley rat lung, soluble lysosomal fraction
T1 sequence (Q5KTC7 34-362): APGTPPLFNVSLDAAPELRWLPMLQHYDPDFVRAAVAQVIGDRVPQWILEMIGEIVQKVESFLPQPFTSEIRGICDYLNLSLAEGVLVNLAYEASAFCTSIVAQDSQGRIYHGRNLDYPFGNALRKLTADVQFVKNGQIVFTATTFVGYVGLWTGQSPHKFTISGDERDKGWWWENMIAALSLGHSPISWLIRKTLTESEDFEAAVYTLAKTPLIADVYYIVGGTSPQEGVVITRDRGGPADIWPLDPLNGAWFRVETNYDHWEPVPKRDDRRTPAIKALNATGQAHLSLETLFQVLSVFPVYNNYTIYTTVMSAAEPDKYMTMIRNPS
Kind of assay: UPLC/MS r-NAAA assay. As to conditions: rat lung lysosomal NAAA preparation. The assay is classed as biochemical. As to the method:
Lysosomal NAAA protein preparation was obtained by homogenizing male Sprague-Dawley rat lungs (Charles River) in 20 mM Tris-HCl buffer pH 7.4 containing 0.32M sucrose. Samples were centrifuged at 800×g for 15 min at 4° C. Supernatants were centrifuged at 12,000×g for 30 min at 4° C. Pellets were then resuspended in PBS pH 7.4 and subjected to a freeze/thaw cycle at −80° C. The suspension was finally centrifuged at 105,000 g for 1 h at 4° C. The supernatant was used in enzymatic assays.
NAAA preparations were pre-incubated with various concentrations of test compounds or vehicle control in 100 mM NaH2PO4/Citrate buffer, 1% Triton-X, 3 mM DTT (pH 4.5) for 30 min at 37° C. Samples were incubated with heptadecenoylethanolamide (50 μM, Avanti Polar Lipids) at 37° C. for 30 min. The reaction was terminated by addition of cold methanol containing heptadecanoic acid (NuCheck Prep) as internal standard. Samples were analyzed by UPLC/MS (Acquity, Waters). Heptadecenoic and heptadecanoic acids were eluted on an Acquity UPLC BEH C18 column (50 mm length, 2.1 mm i.d., 1.7 μm pore size, Waters) isocratically at 0.5 mL/min for 1.5 min with a solvent mixture of 95% methanol and 5% H2O, both containing 0.25% Acetic Acid and 5.0 mM ammonium acetate. The column temperature was 40° C. Electrospray ionization was in the negative mode, capillary voltage was 0.5 kV, cone voltage was […], desolvation temperature was 500° C. N2 was used as drying gas at a flow rate of 1000 L/hour and a temperature of 500° C. The [M−H]^− ion was monitored in the selected-ion monitoring mode (m/z values: heptadecenoic acid 267.37, heptadecanoic acid 269.37). Calibration curves were generated using commercial heptadecenoic acid (NuCheck Prep) Inhibition of NAAA activity was calculated as reduction of heptadecenoic acid in the samples compared to vehicle controls. IC50 values were calculated by non-linear regression analysis of log [concentration]/inhibition curves using GraphPad Prism 5 (GraphPad Software Inc., CA—USA) applying a standard slope curve fitting.

In assay [2] the target is T2, human NAAA (Homo sapiens, UniProt Q02083).
T2 construct: made in house; host or cells: HEK293 cells, stably transfected; soluble fraction after freeze/thaw
T2 sequence (Q02083 29-359): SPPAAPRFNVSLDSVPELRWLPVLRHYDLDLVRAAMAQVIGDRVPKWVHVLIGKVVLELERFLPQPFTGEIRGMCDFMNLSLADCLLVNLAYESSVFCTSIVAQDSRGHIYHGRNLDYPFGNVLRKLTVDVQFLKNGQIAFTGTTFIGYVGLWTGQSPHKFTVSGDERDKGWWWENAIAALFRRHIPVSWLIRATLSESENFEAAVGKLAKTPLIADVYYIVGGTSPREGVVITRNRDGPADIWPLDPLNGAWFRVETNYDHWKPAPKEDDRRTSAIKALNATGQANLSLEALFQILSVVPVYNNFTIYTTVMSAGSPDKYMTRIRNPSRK
Put plainly: Fluorogenic h-NAAA assay. The format is biochemical. As to conditions: recombinant HEK-hNAAA preparation. As for the experimental part:
Hek293 cells stably transfected with the human NAAA coding sequence cloned from a human spleen cDNA library were used as enzyme source. Recombinant HEK-hNAAA pellets were resuspended in homogenizing buffer, and sonicated. Samples were centrifuged at 800×g for 15 min at 4° C. and the supernatants were ultracentrifuged at 12,000×g for 30 min at 4° C. The pellets were resuspended in PBS pH 7.4 on ice and subjected to a freeze/thaw cycle at −80° C. (two freeze/thaw cycles at −80° C. for Examples 34-37). The suspension was finally centrifuged at 105,000×g for 1 h at 4° C. Protein concentration was measured and samples stored at −80° C. until use.
The assay was run in Optiplate 96-wells black plates, in a total reaction volume of 200 μL. NAAA protein preparation (4.0 μg for Examples except 34-37, which were 20.0 μg) was pre-incubated for 10 min with various concentrations of test compounds or vehicle control (5% DMSO) in 100 mM citrate/phosphate buffer (pH 4.5) containing 3.0 mM DTT, 0.1% Triton X-100, 0.05% BSA, 150 mM NaCl. N-(4-methyl-2-oxo-chromen-7-yl)-hexadecanamide was used as a substrate (5.0 μM) and the reaction carried over for 30 min at 37° C. The samples were then read in a Perkin Elmer Envision plate reader using an excitation wavelength of 360 nm and emission 460 nm. IC50 values were calculated by non-linear regression analysis of log [concentration]/inhibition curves using GraphPad Prism 5 (GraphPad Software Inc., CA—USA) applying a standard slope curve fitting.

As a reminder, the IC50 is the concentration that inhibits the measured activity by half.

As for `O=C(CCCCCCc1ccccc1)N[C@H]1CNC1=O` [Example 7, 7-Phenyl-N-[(3S)-2-Oxoazetidin-3-yl]-heptanamide], the IC50 in assay [1] was 2100 nM; in assay [2] it was 334 nM.
For `CCCCCCCCC(=O)N[C@H]1CNC1=O` [Example 3, N-[(3S)-2-Oxoazetidin-3-yl]-nonanamide], the IC50 came to 240 nM in assay [1] and 108 nM in assay [2].

These data come from US9908848B2, “Amide derivatives of lactam based N-acylethanolamine acid amidase (NAAA) inhibitors” (The Regents of the University of California, priority 2013, dated 2018).
